The text below walks through data of patent publication US7786137B2, “Bicyclic derivatives as modulators of ion channels” (Vertex Pharmaceuticals Incorporated, priority 2005, dated 2010).

pIC50: −log10 of the molar value. Some results are limits rather than exact numbers.

NaV1.2, sequence (Q99250 whole entry, looked up): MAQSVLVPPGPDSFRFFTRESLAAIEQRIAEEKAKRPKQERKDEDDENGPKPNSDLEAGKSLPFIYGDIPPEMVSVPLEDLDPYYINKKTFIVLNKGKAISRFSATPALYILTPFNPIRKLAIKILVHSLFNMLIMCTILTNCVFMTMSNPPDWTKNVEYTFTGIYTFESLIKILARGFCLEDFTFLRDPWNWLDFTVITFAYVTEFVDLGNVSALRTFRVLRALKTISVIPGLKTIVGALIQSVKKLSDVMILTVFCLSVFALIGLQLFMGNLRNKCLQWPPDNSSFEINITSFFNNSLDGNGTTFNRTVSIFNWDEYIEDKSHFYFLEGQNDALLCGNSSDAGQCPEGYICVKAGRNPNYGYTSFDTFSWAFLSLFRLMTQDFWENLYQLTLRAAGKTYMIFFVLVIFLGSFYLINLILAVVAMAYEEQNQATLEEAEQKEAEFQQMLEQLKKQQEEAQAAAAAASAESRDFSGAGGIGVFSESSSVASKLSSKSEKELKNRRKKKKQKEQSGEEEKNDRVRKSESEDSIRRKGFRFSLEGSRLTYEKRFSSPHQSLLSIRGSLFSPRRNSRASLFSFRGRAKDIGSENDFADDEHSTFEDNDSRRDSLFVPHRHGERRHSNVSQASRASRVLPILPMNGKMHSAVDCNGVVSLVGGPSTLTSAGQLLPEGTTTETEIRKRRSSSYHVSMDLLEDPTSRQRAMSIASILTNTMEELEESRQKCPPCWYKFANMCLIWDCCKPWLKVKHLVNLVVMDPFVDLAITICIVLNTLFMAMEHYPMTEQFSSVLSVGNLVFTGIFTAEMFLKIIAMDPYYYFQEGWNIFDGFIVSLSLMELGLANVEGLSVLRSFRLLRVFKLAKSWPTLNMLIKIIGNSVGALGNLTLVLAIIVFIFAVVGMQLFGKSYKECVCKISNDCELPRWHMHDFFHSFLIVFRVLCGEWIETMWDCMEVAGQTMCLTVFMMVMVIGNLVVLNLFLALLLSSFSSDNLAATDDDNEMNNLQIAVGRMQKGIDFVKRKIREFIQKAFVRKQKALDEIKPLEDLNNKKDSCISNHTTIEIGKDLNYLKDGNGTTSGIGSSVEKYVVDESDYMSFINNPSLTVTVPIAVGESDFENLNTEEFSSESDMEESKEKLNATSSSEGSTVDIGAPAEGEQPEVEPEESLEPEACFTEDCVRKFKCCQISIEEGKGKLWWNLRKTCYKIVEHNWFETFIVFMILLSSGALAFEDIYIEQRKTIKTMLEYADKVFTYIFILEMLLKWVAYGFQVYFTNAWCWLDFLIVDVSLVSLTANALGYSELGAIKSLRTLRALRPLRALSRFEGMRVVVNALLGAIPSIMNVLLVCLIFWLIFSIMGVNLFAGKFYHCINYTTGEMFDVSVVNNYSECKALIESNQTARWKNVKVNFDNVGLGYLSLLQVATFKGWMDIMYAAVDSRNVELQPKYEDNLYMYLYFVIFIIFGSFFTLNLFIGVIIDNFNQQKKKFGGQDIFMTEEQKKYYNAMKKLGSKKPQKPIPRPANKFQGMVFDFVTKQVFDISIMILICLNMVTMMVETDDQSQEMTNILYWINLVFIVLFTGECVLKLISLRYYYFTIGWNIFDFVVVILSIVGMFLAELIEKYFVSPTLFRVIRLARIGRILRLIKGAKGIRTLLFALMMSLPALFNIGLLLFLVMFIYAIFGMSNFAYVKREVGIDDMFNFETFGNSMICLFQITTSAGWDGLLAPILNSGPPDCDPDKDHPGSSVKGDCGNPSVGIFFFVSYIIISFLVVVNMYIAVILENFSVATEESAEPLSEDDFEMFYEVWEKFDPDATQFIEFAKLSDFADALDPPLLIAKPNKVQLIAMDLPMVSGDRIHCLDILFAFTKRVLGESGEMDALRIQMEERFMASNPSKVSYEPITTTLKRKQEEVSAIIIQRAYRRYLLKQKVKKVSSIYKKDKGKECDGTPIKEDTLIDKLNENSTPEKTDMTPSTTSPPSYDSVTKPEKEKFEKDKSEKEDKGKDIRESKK

For one assay, the target named is T1, NaV1.3 (Homo sapiens, UniProt Q9NY46).
Assay: not given
As to conditions: read-out: TTX IC50; cited from earlier work.
Target sequence in this assay (Q9NY46 whole entry, looked up): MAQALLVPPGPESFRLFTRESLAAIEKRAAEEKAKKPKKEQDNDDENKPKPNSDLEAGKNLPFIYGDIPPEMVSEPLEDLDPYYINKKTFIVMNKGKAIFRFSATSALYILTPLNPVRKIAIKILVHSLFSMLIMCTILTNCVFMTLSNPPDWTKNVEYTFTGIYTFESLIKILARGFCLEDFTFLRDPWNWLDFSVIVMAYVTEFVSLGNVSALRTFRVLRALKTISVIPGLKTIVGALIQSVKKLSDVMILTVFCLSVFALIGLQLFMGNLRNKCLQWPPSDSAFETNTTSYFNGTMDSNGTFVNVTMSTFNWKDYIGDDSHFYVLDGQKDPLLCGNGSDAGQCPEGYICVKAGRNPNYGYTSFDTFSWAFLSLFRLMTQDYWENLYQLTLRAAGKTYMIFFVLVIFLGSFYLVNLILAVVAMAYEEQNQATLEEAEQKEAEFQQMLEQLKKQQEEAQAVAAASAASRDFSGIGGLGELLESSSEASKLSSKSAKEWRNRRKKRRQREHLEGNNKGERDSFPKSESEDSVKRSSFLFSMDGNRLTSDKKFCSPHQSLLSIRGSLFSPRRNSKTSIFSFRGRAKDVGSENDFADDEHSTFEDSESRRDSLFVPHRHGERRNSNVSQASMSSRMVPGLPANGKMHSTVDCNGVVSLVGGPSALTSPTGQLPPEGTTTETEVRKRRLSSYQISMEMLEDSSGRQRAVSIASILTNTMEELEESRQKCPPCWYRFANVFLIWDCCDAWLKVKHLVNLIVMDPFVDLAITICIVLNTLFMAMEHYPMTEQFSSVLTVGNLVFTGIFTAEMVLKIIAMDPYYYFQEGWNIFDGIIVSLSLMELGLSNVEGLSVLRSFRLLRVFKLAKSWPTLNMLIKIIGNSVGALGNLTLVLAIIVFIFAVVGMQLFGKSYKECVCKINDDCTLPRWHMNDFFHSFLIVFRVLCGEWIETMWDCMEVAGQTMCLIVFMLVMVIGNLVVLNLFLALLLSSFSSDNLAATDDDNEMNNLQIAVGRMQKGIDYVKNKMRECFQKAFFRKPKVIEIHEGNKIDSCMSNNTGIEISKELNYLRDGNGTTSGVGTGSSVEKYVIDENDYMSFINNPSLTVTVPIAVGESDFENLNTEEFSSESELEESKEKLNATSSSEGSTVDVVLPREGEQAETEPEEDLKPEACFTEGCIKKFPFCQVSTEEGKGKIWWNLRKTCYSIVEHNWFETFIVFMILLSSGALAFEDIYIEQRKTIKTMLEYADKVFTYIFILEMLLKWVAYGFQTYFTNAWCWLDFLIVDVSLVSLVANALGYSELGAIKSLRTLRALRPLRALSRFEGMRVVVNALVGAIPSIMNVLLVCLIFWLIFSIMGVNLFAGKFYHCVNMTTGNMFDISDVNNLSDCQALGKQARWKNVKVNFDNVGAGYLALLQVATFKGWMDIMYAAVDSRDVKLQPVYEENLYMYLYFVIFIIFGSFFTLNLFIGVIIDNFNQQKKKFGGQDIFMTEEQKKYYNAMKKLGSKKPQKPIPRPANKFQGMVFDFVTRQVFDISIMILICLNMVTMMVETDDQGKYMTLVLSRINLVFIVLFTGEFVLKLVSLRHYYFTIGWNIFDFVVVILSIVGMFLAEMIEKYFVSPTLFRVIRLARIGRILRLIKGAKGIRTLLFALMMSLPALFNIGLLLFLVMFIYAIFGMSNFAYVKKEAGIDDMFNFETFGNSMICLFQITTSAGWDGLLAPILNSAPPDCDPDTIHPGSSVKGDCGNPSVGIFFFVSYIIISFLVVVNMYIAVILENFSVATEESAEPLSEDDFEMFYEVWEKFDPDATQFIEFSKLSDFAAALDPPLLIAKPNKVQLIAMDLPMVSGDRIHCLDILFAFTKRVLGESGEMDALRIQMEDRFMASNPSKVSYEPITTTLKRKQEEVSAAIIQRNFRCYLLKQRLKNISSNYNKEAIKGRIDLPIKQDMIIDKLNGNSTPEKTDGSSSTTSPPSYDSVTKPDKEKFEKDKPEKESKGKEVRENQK
Turning to `NC1=N[C@H](O)[C@H]2[C@H]3O[C@]4(O)O[C@@H]([C@@H](O)[C@@]2(N1)[C@@H]4O)[C@]3(O)CO` [TTX, tetrodotoxin], the pIC50 is 7.82.

Another assay concerns the target NaV1.6 (Homo sapiens, UniProt Q9UQD0).
Assay: not given
As to conditions: read-out: TTX IC50; cited from earlier work.
Regarding `NC1=N[C@H](O)[C@H]2[C@H]3O[C@]4(O)O[C@@H]([C@@H](O)[C@@]2(N1)[C@@H]4O)[C@]3(O)CO` [TTX, tetrodotoxin], the pIC50 is 8.22.

For a further assay, the target named is NaV1.8 (Homo sapiens, UniProt Q9Y5Y9).
Assay: not given
The conditions noted are these: read-out: TTX IC50; cited from earlier work.
In the case of `NC1=N[C@H](O)[C@H]2[C@H]3O[C@]4(O)O[C@@H]([C@@H](O)[C@@]2(N1)[C@@H]4O)[C@]3(O)CO` [TTX, tetrodotoxin], the pIC50 was < 4.30.

The target in a further assay is NaV1.9 (Homo sapiens, UniProt Q9UI33).
Assay: not given
The conditions noted are these: read-out: TTX IC50; cited from earlier work.
On to `NC1=N[C@H](O)[C@H]2[C@H]3O[C@]4(O)O[C@@H]([C@@H](O)[C@@]2(N1)[C@@H]4O)[C@]3(O)CO` [TTX, tetrodotoxin], for which the pIC50 was 6.00.

Tested on in another assay: not given
Assay: not given
As to conditions: neuropathic pain, modest efficacy; cited from earlier work.
`NCC1(CC(=O)O)CCCCC1` [Gabapentin]: the “patients in whom it works” value was 60%.

The next assay addresses NaV1.1 (Homo sapiens, UniProt P35498).
Assay: not given
As to conditions: read-out: TTX IC50; cited from earlier work.
On to `NC1=N[C@H](O)[C@H]2[C@H]3O[C@]4(O)O[C@@H]([C@@H](O)[C@@]2(N1)[C@@H]4O)[C@]3(O)CO` [TTX, tetrodotoxin], for which the pIC50 was 8.00.

A further assay concerns the target NaV1.2 (Homo sapiens, UniProt Q99250).
Assay: not given
The conditions noted are these: read-out: TTX IC50; cited from earlier work.
Take `NC1=N[C@H](O)[C@H]2[C@H]3O[C@]4(O)O[C@@H]([C@@H](O)[C@@]2(N1)[C@@H]4O)[C@]3(O)CO` [TTX, tetrodotoxin]: the pIC50 was 8.00.

The target of the next assay is T1, NaV1.3. In words: VIPR optical membrane potential assay, NaV1.3 inhibition. Further details: expressed in transfected cells; host or cells: HEK293. It counts as cell-based. As to conditions: activity against NaV 1.3 channel.
Target sequence in this assay (Q9NY46 whole entry): as the sequence (Q9NY46 whole entry, looked up) above
As for `O=C(CCCOc1ccc(Cl)cc1Cl)N1CCCc2cc(S(=O)(=O)Nc3nccs3)ccc21` [Compound 180], the pIC50 was > 5.70.

`Cc1ccc(OCC(=O)N2CCc3cc(S(=O)(=O)Nc4nccs4)ccc32)cc1` [Compound 181]: the pIC50 was > 5.70.

`O=C(COc1ccc(Cl)cc1Cl)n1ccc2cc(S(=O)(=O)Nc3nccs3)ccc21` [Compound 183] showed a pIC50 of 5.30 to 5.70.

In the case of `COc1ccc(NCC(=O)N2CCc3cc(S(=O)(=O)Nc4nccs4)ccc32)cc1F` [Compound 184], the pIC50 is < 5.30.

`CC(Oc1ccccc1Cl)C(=O)N1CCc2cc(S(=O)(=O)Nc3ncns3)ccc21` (stereo not drawn) [Compound 185]: the negative-log IC50 (pIC50) is > 5.70.

In the case of `CC(Oc1ccc(OC(F)(F)F)cc1)C(=O)N1Cc2ccc(S(=O)(=O)Nc3nccs3)cc2C1` (stereo not drawn) [Compound 186], the negative logarithm of the IC50 (pIC50) was > 5.70.

For the compound `COc1ccc(CCC(=O)n2ccc3cc(S(=O)(=O)Nc4nccs4)ccc32)cc1` [Compound 187], the pIC50 is > 5.70.

`O=C(Cc1ccccc1)N1CCc2cc(S(=O)(=O)Nc3nccs3)ccc21` [Compound 188]: the pIC50 is > 5.70.

As for `O=C(CCc1ccccc1)n1ccc2cc(S(=O)(=O)Nc3nccs3)ccc21` [Compound 189], the negative-log IC50 (pIC50) was > 5.70.

As to `Cc1ccc(OCC(=O)N2Cc3ccc(S(=O)(=O)Nc4nccs4)cc3C2)cc1C` [Compound 190], the pIC50 is > 5.70.

As for `Cc1ccc(C(=O)n2ccc3cc(S(=O)(=O)Nc4nccs4)ccc32)cc1Cl` [Compound 191], the pIC50 is < 5.30.

`COc1cccc(CCC(=O)N2CCc3cc(S(=O)(=O)Nc4nccs4)ccc32)c1` [Compound 192]: the pIC50 was > 5.70.

With `COc1ccc(CC(=O)N2Cc3ccc(S(=O)(=O)Nc4nccs4)cc3C2)cc1` [Compound 193], the pIC50 was 5.30 to 5.70.

With `O=C(COc1ccnc2c(C(F)(F)F)cccc12)N1CCc2cc(S(=O)(=O)Nc3nccs3)ccc21` [Compound 194], the pIC50 is > 5.70.

In turn, `Cc1ccc(F)c(C(=O)n2ccc3cc(S(=O)(=O)Nc4nccs4)ccc32)c1` [Compound 195] had a pIC50 of 5.30 to 5.70.

On to `O=C(Cc1ccc(F)cc1F)N1CCc2cc(S(=O)(=O)Nc3nccs3)ccc21` [Compound 196], for which the pIC50 was > 5.70.

Consider `O=C(CCc1ccccc1)N1CCc2cc(S(=O)(=O)Nc3nccs3)ccc21` [Compound 197], for which the pIC50 was > 5.70.

For the compound `O=C(CNc1cccc(F)c1)N1CCc2cc(S(=O)(=O)Nc3nccs3)ccc21` [Compound 198], the negative-log IC50 (pIC50) is > 5.70.

As to `O=C(COc1ccccc1)N1Cc2ccc(S(=O)(=O)Nc3nccs3)cc2C1` [Compound 199], the pIC50 is > 5.70.

For `O=C(COc1ccc(F)c(Cl)c1)N1Cc2ccc(S(=O)(=O)Nc3ncns3)cc2C1` [Compound 200], the pIC50 is > 5.70.

On to `CC(C(=O)n1ccc2cc(S(=O)(=O)Nc3nccs3)ccc21)n1ccc2ccccc21` (stereo not drawn) [Compound 201], for which the pIC50 was < 5.30.

Regarding `C[C@H](C(=O)N1CCc2cc(S(=O)(=O)Nc3ncns3)ccc21)n1ccc2ccccc21` [Compound 202], the pIC50 is > 5.70.

For `C[C@@H](C(=O)N1Cc2ccc(S(=O)(=O)Nc3ccncn3)cc2C1)n1ccc2c(F)cccc21` [Compound 203], the pIC50 is < 5.30.

Take `CC(C(=O)N1CCc2cc(S(=O)(=O)Nc3nccs3)ccc21)n1ccc2ccccc21` (stereo not drawn) [Compound 204]: the pIC50 is > 5.70.

Take `O=C(CN1CCCc2cc(Cl)ccc21)N1CCc2cc(S(=O)(=O)Nc3ncns3)ccc21` [Compound 205]: the pIC50 was > 5.70.

`CC(C)(C)c1ccc(OCC(=O)N2CCCc3cc(S(=O)(=O)Nc4nccs4)ccc32)cc1` [Compound 206]: the pIC50 is > 5.70.

As to `C[C@H](C(=O)N1Cc2ccc(S(=O)(=O)Nc3ncns3)cc2C1)n1ccc2ccccc21` [Compound 207], the pIC50 is > 5.70.

Regarding `Cc1ccnc(NS(=O)(=O)c2ccc3c(c2)CCN3C(=O)CCCOc2ccc(Cl)cc2Cl)n1` [Compound 208], the pIC50 is < 5.30.

As to `O=C(CCn1ccc2cc(Cl)ccc21)N1CCc2cc(S(=O)(=O)Nc3nccs3)ccc21` [Compound 209], the pIC50 is > 5.70.
